In patent US8207229B1, “Preparation of hydroquinone amide compounds with antioxidant properties” (Catalys SAS, priority 2008, dated 2012):

Assays:
[1] = Inhibiting effect of free radicals: absorbance at 516 nm in the presence of radical diphenyl picryl hydrazide (XI); type: biochemical; details: ethanolic solution, 200 micromoles per liter compound, 100 micromoles per liter radical (XI), stirred 30 minutes at 20° C., 1-cm vessel
Method: The antioxidant potential in solution of the compounds (I) is evaluated by measuring their reaction with the free radical diphenyl-picryl-hydrazide (XI) per C. T. Ho, S. Agric. Food Chem. 1999, p. 3975, using methyl gallate as a reference (XII).
The inhibiting effect of free radicals claimed for compounds (Ia) and (Ib) obtained in a pure state was evaluated by measuring their absorbance in UV spectrophotometry at 516 nanometers in the presence of radical diphenyl picryl hydrazide (XI).
We prepared ethanolic solutions containing 200 micromoles per liter of the compound to be tested and 100 micromoles per liter of radical (XI), stirred for 30 minutes at 20° C. and placed in a 1-cm long vessel, and we measured the absorbances.

[2] = Assay of the free radical scavenging activity: addition of radical (XI) solution until purple color, absorbance at 516 nm; type: biochemical
From the text: b) Assay of the free radical scavenging activity of amides (Ia) and (Ib):
Under absorbance measurement conditions of 516 nanometers, we placed 2 micromoles of reference or substrate (Ia) and (Ib) under the UV cell.
We introduced a solution of 200 micromoles of radical (XI) until the purple color characteristic of the radical and measured the absorbance of the medium: […]

With `COC(=O)c1cc(O)c(O)c(O)c1` [Methyl gallate, methyl gallate] the “Absorbance at 516 nm” value [1] was 0.06, the “(XI) consumed” value ([2]; 2 micromoles of reference or substrate, solution of 200 micromoles of radical (XI) introduced until purple color) was 27.7 mL and the “Absorbance at 516 nm” value ([2]; absorbance of the medium after addition of radical (XI) until purple color, 2 micromoles of substrate) was 0.34.
